From ChEMBL document CHEMBL6115048, “Uncovering α-Selectivity for Liver X Receptor Agonists for Lipotoxic Cancer Therapies” (J Med Chem, 2025)
Activity calls are given as the source filed them. The calls are words filed in the database; no cut-off is given here.

Columns and labels:
[1] = target: T1, Nuclear receptor subfamily 1 group I member 3 (Mus musculus, UniProt O35627); assay: Agonist activity at mouse CAR transfected in human HepG2 cells co-transfected with p2B6-luciferase reporter at 10 uM incubated for 24 hrs by dual-luciferase reporter gene assay; assay type: cell-based; conditions: hepg2, 24 h
T1 sequence (O35627 whole entry): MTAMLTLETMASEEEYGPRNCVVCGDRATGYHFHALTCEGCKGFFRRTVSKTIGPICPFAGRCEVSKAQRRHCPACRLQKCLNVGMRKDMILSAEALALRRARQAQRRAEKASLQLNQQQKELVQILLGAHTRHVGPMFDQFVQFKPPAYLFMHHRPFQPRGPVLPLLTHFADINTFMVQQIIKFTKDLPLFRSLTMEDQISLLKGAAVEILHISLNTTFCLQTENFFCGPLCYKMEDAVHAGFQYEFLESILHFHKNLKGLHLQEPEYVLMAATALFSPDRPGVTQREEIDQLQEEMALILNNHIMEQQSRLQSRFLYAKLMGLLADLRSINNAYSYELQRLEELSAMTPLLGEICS

Hep 3B2 [2] = assay: Antiproliferative activity against human Hep3B cells assessed as reduction in cell viability measured after 5 days in presence of sorafenib by Celltiter-glo assay; assay type: functional, cell-based; conditions: 120 h
[3] = target: T2, Estrogen receptor (Homo sapiens) (UniProt P03372); assay: Agonist activity at ERalpha (unknown origin) transfected in human HepG2 cells co-transfected with renilla reniformis luciferase reporter at 10 uM incubated for 24 hrs by dual-luciferase reporter gene assay; assay type: cell-based
T2 sequence (whole entry): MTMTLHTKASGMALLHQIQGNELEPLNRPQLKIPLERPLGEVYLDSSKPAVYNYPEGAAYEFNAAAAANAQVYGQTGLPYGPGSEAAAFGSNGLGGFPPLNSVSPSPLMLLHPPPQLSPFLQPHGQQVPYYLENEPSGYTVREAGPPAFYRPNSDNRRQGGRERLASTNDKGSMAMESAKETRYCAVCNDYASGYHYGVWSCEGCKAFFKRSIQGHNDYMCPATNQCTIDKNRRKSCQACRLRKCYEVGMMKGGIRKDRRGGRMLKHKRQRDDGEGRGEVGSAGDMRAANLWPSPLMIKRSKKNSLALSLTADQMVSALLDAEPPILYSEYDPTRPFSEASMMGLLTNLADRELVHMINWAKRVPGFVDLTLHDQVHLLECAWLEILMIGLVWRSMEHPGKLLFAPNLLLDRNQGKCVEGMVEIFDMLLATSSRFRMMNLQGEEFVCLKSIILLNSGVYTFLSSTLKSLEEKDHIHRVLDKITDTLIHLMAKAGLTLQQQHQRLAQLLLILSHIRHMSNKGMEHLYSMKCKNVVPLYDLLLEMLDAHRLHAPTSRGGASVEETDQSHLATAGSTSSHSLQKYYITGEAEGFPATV

Hep 3B2 [4] = assay: Induction of endoplasmic reticulum (ER) stress in human Hep3B cells assessed as increase in CHOP expression measured after 3 days in presence of sorafenib by Western blot analysis; assay type: functional, cell-based; conditions: time 3.0 day
[5] = target: T3, Peroxisome proliferator-activated receptor alpha (Homo sapiens) (UniProt Q07869); assay: Agonist activity at PPARalpha (unknown origin) transfected in human HepG2 cells co-transfected with renilla reniformis luciferase reporter at 10 uM incubated for 24 hrs by dual-luciferase reporter gene assay; assay type: cell-based
T3 sequence (whole entry): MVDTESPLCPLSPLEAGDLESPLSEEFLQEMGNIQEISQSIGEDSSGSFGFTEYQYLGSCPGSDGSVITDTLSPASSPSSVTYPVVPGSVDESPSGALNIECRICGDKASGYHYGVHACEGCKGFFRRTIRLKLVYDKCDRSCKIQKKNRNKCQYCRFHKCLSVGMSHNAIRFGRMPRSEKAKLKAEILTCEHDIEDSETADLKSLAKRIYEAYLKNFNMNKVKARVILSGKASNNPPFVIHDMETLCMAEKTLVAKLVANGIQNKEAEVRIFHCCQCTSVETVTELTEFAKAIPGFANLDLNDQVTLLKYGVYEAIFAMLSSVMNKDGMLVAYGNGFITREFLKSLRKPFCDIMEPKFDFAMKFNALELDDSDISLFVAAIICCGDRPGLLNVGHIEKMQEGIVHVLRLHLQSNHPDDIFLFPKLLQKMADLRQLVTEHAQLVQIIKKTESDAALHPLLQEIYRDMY

[6] = target: Estrogen receptor beta (Homo sapiens) (UniProt Q92731); assay: Agonist activity at ERbeta (unknown origin) transfected in human HepG2 cells co-transfected with renilla reniformis luciferase reporter at 10 uM incubated for 24 hrs by dual-luciferase reporter gene assay; assay type: cell-based
Sequence of Estrogen receptor beta (Homo sapiens) (Q92731 whole entry): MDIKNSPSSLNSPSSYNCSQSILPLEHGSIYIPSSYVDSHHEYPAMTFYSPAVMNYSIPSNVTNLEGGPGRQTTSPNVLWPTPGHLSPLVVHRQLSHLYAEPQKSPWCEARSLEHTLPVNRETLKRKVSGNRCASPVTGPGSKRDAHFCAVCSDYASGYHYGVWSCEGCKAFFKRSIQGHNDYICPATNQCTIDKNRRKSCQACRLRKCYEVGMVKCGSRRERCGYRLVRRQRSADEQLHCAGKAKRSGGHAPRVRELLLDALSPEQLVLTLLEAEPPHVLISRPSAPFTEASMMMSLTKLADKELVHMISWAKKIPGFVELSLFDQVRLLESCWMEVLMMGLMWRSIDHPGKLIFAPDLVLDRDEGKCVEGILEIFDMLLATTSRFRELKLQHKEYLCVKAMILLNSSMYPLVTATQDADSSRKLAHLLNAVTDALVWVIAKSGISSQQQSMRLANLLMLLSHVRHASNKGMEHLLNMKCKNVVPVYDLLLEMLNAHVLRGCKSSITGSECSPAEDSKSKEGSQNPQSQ

Hep 3B2 [7] = assay: Induction of oxidative stress in human Hep3B cells assessed as increase in SOD1 expression measured after 3 days in presence of sorafenib by Western blot analysis; assay type: functional, cell-based; conditions: time 3.0 day
Hep 3B2 [8] = assay: Antiproliferative activity against human Hep3B cells assessed as reduction in cell viability measured after 5 days by Celltiter-glo assay; assay type: functional, cell-based; conditions: time 5.0 day
AML12 = assay: Cytotoxicity against mouse AML12 cells assessed as reduction in cell viability at 0.01 to 100 uM measured after 5 days in presence of sorafenib by CellTiter-Glo assay; assay type: toxicity, cell-based; conditions: aml12, 120 h, dose 0.01-100 µM, time 5 day

With `O=C1C(Nc2ccc(N3CCCCC3)cc2)=C(c2ccccc2)C(=O)N1Cc1ccccc1` the Activity [1] was “Not_active”, the EC50 (Hep 3B2 [2]) was 1700 nM and the Activity [3] was “inactive”. For the same molecule, the Activity (Hep 3B2 [4]) was “Active”, the Activity [5] was “inactive” and the Activity [6] was “inactive”. For the same molecule, the Activity (Hep 3B2 [7]) was “Active”, the Activity (Hep 3B2 [8]) was “inactive” and the Activity (AML12) was “Toxic”.
